Reference: ChEMBL document CHEMBL2346660, “Synthesis and biological evaluation of trans 6-methoxy-1,1-dimethyl-2-phenyl-3-aryl-2,3-dihydro-1H-inden-4-yloxyalkylamine derivatives against drug susceptible, non-replicating M. tuberculosis H37Rv and clinical multidrug resistant strains” (Bioorg Med Chem Lett, 2013)
Values after ≈ are worked out from the molar mass of the structure shown.

Assays:
[1] = tested on: Mycobacterium tuberculosis; assay: Antimicrobial activity against rifampicin-resistant and INH-resistant Mycobacterium tuberculosis 1678/05 by agar dilution method and BACTEC radiometric method; assay type: functional
[2] = tested on: Mycobacterium tuberculosis; assay: Antimicrobial activity against rifampicin-resistant and INH-resistant Mycobacterium tuberculosis 2643 by agar dilution method and BACTEC radiometric method; assay type: functional

Structure (SMILES)	MIC [1] [µg/mL]	MIC [2] [µg/mL]
COc1cc(OCCN2CCCCCC2)c2c(c1)C(C)(C)[C@H](c1ccccc1)[C@H]2c1c(OC)ccc2ccccc12 (relative stereo)	3.12 (≈ 5.68 µM)	3.12 (≈ 5.68 µM)
COc1cc(OCCN(C(C)C)C(C)C)c2c(c1)C(C)(C)[C@H](c1ccccc1)[C@H]2c1ccccc1 (relative stereo)	6.25 (≈ 13.3 µM)	6.25 (≈ 13.3 µM)
